Measured values published in publication PMC12794055, “High-Throughput Cardiac Hypertrophy Phenotyping Supports Lead Optimization of GRK5 Inhibitors” (ACS Medicinal Chemistry Letters, 2025).
“Also recorded” adds a separate entry of the source. Where no end group is shown, it is not given here.

Tests used:
GRK2 = details: read-out: GRK2 IC50; biochemical IC50, radiometric kinase inhibition assay; ref 40 (citation marks lost in text); cited from earlier work
[1] = system: mixed cardiac cells (CMs and non-CMs); details: for toxicity, in words: nuclei counts of CMs and non-CMs
mixed cardiac cells [2] = test: High-content hypertrophy assay (Hypertrophy Score), PE-LIF-stimulated mixed cardiac cells treated with inhibitors; details: 96 h; for antihypertrophic effect (Hypertrophy Score), in words: comparison at 8 μM
purified CMs [3] = test: qPCR of hypertrophic gene expression (Nppa, Nppb) in purified CMs; assay type: cell-based, rat; details: 100 µM PE + 50 ng/ml LIF, 24 h
mixed cardiac cells [4] = test: Profiling of hypertrophic stimulants in mixed cardiac cell culture (Hypertrophy Score); details: stimulants at three concentrations
purified CMs [5] = test: Profiling of hypertrophic stimulants in purified CM culture (Hypertrophy Score)

Cc1[nH]c(/C=C2\C(=O)Nc3ccc(C(=O)N[C@H](C)c4ccc(F)cc4)cc32)c(C)c1NC(=O)C(=O)c1ccco1 [Compound 3]
reduction in non-CM numbers (antiproliferative activity), in words ([1]; non-CM nuclei counts, 96 h): most pronounced
antihypertrophic effect (Hypertrophy Score), in words (mixed cardiac cells [2]; PE-LIF (20 μM, 50 ng/mL)): partially reduced the Hypertrophy Score; also recorded: surprisingly poor cellular efficacy

Cc1[nH]c(/C=C2\C(=O)Nc3ccc(C(=O)N[C@H](C)c4ccc(F)cc4)cc32)c(C)c1NC(=O)[C@@H](O)c1ccco1 [Compound 4a]
PE-LIF-induced upregulation of Nppa and Nppb, in words (purified CMs [3]): prevented PE-LIF-induced upregulation of Nppa and Nppb
concentration from which PE-LIF-induced Hypertrophy Score is significantly reduced (mixed cardiac cells [2]; PE-LIF (20 μM, 50 ng/mL)): ≥ 3 µM
antihypertrophic effect (Hypertrophy Score), in words (mixed cardiac cells [2]; PE-LIF (20 μM, 50 ng/mL)): most potent cellular inhibitor; also recorded: clear cellular effects
IC50 (mixed cardiac cells [2]; Rattus norvegicus, read-out: cellular IC50 (antihypertrophic effects)): 4.7 µM

Cc1[nH]c(/C=C2\C(=O)Nc3ccc(C(=O)N[C@H](C)c4ccc(F)cc4)cc32)c(C)c1NC(=O)[C@H](O)c1ccco1 [Compound 4b]
reduction in non-CM numbers (antiproliferative activity), in words ([1]; non-CM nuclei counts, 96 h): absent
antihypertrophic effect (Hypertrophy Score), in words (mixed cardiac cells [2]; PE-LIF (20 μM, 50 ng/mL)): no effect at any concentration; also recorded: lacked cellular efficacy; also recorded: no antihypertrophic efficacy

Cc1[nH]c(/C=C2\C(=O)Nc3ccc(C(=O)N[C@H](C)c4ccc(F)cc4)cc32)c(C)c1NC(=O)c1ccoc1 [Compound 5b]
toxicity, in words [1]: neither toxicity
antihypertrophic effect (Hypertrophy Score), in words (mixed cardiac cells [2]; PE-LIF (20 μM, 50 ng/mL)): nor significant antihypertrophic effects; also recorded: surprisingly poor cellular efficacy

Cc1nc(C(=O)Nc2c(C)[nH]c(/C=C3\C(=O)Nc4ccc(C(=O)N[C@H](C)c5ccc(F)cc5)cc43)c2C)c(C)s1 [Compound 5d]
concentration at which CMs are affected ([1]; CM nuclei counts, 96 h): ≥ 2000 nM
concentration from which non-CM numbers are reduced ([1]; non-CM nuclei counts, 96 h): ≥ 500 nM
toxicity, in words [1]: excluded due to toxicity
antihypertrophic effect (Hypertrophy Score), in words (mixed cardiac cells [2]; PE-LIF (20 μM, 50 ng/mL)): appeared to reduce hypertrophy

Cc1[nH]c(/C=C2\C(=O)Nc3ccc(C(=O)N[C@H](C)c4ccc(F)cc4)cc32)c(C)c1NC(=O)C1CCOCC1 [Compound 5i]
antihypertrophic effect (Hypertrophy Score), in words (mixed cardiac cells [2]; PE-LIF (20 μM, 50 ng/mL)): partially reduced the Hypertrophy Score

Cc1[nH]c(/C=C2\C(=O)Nc3ccc(C(=O)N[C@H](C)c4ccc(F)cc4)cc32)c(C)c1NC(=O)[C@H]1CCC(=O)O1 [Compound 5k]
toxicity, in words [1]: neither toxicity
antihypertrophic effect (Hypertrophy Score), in words (mixed cardiac cells [2]; PE-LIF (20 μM, 50 ng/mL)): nor significant antihypertrophic effects; also recorded: lacked cellular efficacy

Cc1nc2c(C(=O)Nc3c(C)[nH]c(/C=C4\C(=O)Nc5ccc(C(=O)N[C@H](C)c6ccc(F)cc6)cc54)c3C)cccc2[nH]1 [Compound 5m]
antihypertrophic effect (Hypertrophy Score), in words (mixed cardiac cells [2]; PE-LIF (20 μM, 50 ng/mL)): partially reduced the Hypertrophy Score

NC[C@H](O)c1ccc(O)c(O)c1 [NE, norepinephrine]
hypertrophic response (Hypertrophy Score), in words (mixed cardiac cells [4]): weaker response than PE alone

CNC[C@H](O)c1cccc(O)c1 [PE, phenylephrine]
hypertrophic response (Hypertrophy Score), in words (mixed cardiac cells [4]): strongest response

endothelin-1 (CSCSSLMDKECVYFCHLDIIW; not fully specified (bridges); ends and bridges not checked; UniProt P05305 53-73, looked up) [ET-1]
hypertrophic response (Hypertrophy Score), in words (mixed cardiac cells [4]): robust hypertrophic effects

leukemia inhibitory factor [LIF]
hypertrophic response (Hypertrophy Score), in words (purified CMs [5]): significantly increased the Hypertrophy Score
hypertrophic response (Hypertrophy Score), in words (mixed cardiac cells [4]): little to no effect

transforming growth factor beta [TGFβ]
hypertrophic response (Hypertrophy Score), in words (mixed cardiac cells [4]): little to no effect
